The record followed here is patent US10201175B2, “N-acylated 1-aminocycloalkyl carboxylic acids as food flavouring compounds” (Givaudan S.A., priority 2012, dated 2019).

Assay [1] in a line: Expert taster evaluation, test in soups and bouillons. The settings on record: 0.7% salt, 0.5% fat. How it is done: (§1) Samples were prepared and evaluated by expert tasters. Tasters were asked to describe the samples focusing on authentic taste, mouthfeel, fullness, salivation, salty-ness, umami, sweetness, juiciness, richness, long lastingness and fattiness.
Test in Soups and Bouillons
Standard Chicken bouillon base

Assay [2] can be described thus: Expert taster evaluation, test in cheese (spreadable cheese ERU). The following applies: 0.5 ppm in spreadable cheese ERU. The method, then: as §1
The nature of assay [3]: Expert taster evaluation, test in dressings. The following applies: 0.5 ppm in low fat salad dressing (13.6% fat). The method, then: as §1
Low fat salad dressing (13.6% Fat)

Assay [4] in a line: Expert taster evaluation, test on Kikkoman soy sauce low salt. The following applies: 0.5 ppm in Kikkoman soy sauce low salt; salt level in application 0.3-1.0%. The method, then:
as §1
Test on Kikkoman soy sauce low salt
(§2) Salt level pure product between 5-40%
(§3) Salt level in application 0.3-1.0%

The nature of assay [5]: Expert taster evaluation, test in cheese sauce. The settings on record: 0.5 ppm in cheese sauce, 5% fat, 1.6% salt. How it is done:
as §1
Cheese sauce: 5% fat 1.6% salt

Assay [6] can be described thus: Expert taster evaluation, test in jus and fonds. The settings on record: 40 ppb in beef jus. How it is done:
as §1

Assay [7] in a line: Expert taster evaluation, test in mayonnaise. The following applies: 0.5 ppm in low fat mayonnaise (27% fat). The method, then: as §1
Fat levels between 10-80%
Low fat Mayonnaise (27% Fat)

Assay [8] is described as follows: Expert taster evaluation, test in fish sauce. The following applies: 0.5 ppm in fish sauce; salt level in application 0.3-1.0%. The method, then: as §1, §2, §3

Regarding `CCCCCCCC/C=C\CCCCCCCC(=O)NC1(C(=O)O)CC1` [C18:1-ACCA, N-oleoyl 1-amino-cyclopropyl carboxylic acid], the “taste description by expert tasters” value in assay [1] (0.2 ppm in standard chicken bouillon base) is “Saltier, Stronger and more umami”; in assay [1] (0.5 ppm in standard chicken bouillon base), “More body and fatty notes, salivating and good aftertaste”; in assay [2], “Strong umami, lingering cheese bite”; in assay [3], “Increased mouthfeel body less acidic”; in assay [4] it was “Strong upfront saltiness lingering, very strong saltiness”; in assay [5], “Strong umami, cheese bite, expanding”. The “taste description by expert tasters” value in assay [6] is reported as “more salty, fatty, total profile is enhanced”; in assay [7] it was “Nice balanced, full mouthfeel, increased eggyness”; in assay [8], “Strong saltiness lingering, strong body mouthfeel”.
